Source: patent publication US20250186420A1, “POLYMETHINIUM SALTS AS INHIBITORS OF DIHYDROOROTATE DEHYDROGENASE” (UNIVERZITA KARLOVA, priority 2022, published 2025)

How the values were obtained:
Type in all cases: cell-based
[1] = system: DHODH-dependent respiration in PNT1A cell line; assay: Inhibition of DHODH-dependent respiration (Oxygraph-2k); conditions: model of normal prostate tissue, test substance 1 to 4 nM, permeabilized cells
Experimental: (§1) DHODH-dependent respiration was performed as follows. Cells were trypsinized, washed with PBS, resuspended in an amount of 2×10^6 cells per ml Mir05 medium (0.5 mM EGTA, 3 mM MgCl2, 60 mM K-lactobionate, 20 mM taurine, 10 mM KH2PO4, 110 mM sucrose, 1 g/L bovine serum albumin, 20 mM Hepes, pH 7.1 at 30° C.) and transferred to the chamber of the Oxygraph-2k instrument (Oroboros). Respiration was measured at 37° C. Cells were permeabilized with 5 μg of digitonin per 10^6 cells, and complex I inhibitor (0.3 μM rotenone) and test substance were added at concentrations from 1 to 4 nM before adding the substrate. DHODH-mediated respiration was assessed by subtracting the residual rate of respiration remaining after the addition of 30 μM leflunomide from the rate of respiration in the presence of 1 mM dihydroorotate (DHO), 3 mM ADP, and 10 μM cytochrome c.

[2] = system: DHODH-dependent respiration in PC-3; assay: as above; conditions: PC-3 tumor line; test substance 1 to 4 nM; permeabilized cells
Experimental: as §1

[3] = system: DHODH-dependent respiration in U-2 OS; assay: as above; conditions: U-2 OS tumor line; test substance 1 to 4 nM; permeabilized cells
Experimental: as §1

[4] = system: PC-3; assay: xCELLigence real-time impedance cell invasiveness (matrigel); conditions: for Normalized cell index (cell invasiveness): matrigel-coated wells, normalized to 1.0 at addition of test agent, concentration based on IC50 for the cell line
Experimental: (§2) The xCELLigence system based on real-time cell impedance analysis (RTCA) was used to determine invasiveness and migration rates. The xCELLigence system consists of four main components: an RTCA DP station, an RTCA computer with integrated software, and CIM 16 disposable plates. First, the optimal cell seeding concentration for the proliferation and invasiveness assay was determined. After seeding the total number of cells in 200 μl medium into each well in E-plate 16, cell adherence and proliferation were monitored every 15 minutes. For the invasiveness assay, the optimal response was found in a well containing 20,000 cells. After coating the upper wells with matrigel and adding FBS as a chemoattractant, cells were seeded in 100 μl medium in each well of a CIM-plate 16. Adherence and growth of cells through the matrigel was monitored every 15 minutes. The duration of all experiments was 150 hours. The relative invasiveness rate was defined as the cellular index for matrigel-coated wells (cells must spread/pass through the matrigel to generate a signal) at a given time point. The impedance of electron flow due to adherent cells is given by a unitless parameter called the cell index (CI), where CI=(impedance at time point n-impedance in the absence of cells)/nominal impedance value). In order to compare individual cell lines/treatment, these cell indices were normalized to 1.0 at the time the test agents were added. Concentrations of compounds were chosen based on the IC50 inhibitory concentration for each cell line.

[5] = system: U-2 OS; assay: as above; conditions: for Normalized cell index (cell invasiveness): matrigel-coated wells, normalized to 1.0 at addition of test agent, concentration based on IC50 for the cell line
Experimental: as §2

[6] = system: PNTA; assay: as above; conditions: for Normalized cell index (cell invasiveness): matrigel-coated wells, normalized to 1.0 at addition of test agent, concentration based on IC50 for the cell line
Experimental: as §2

[7] = system: PC-3; assay: xCELLigence real-time impedance cell migration; conditions: for Normalized cell index (cell migration): cell index normalized to 1.0 at addition of test agent, concentration based on IC50 for the cell line
Experimental: as §2

[8] = system: U-2 OS; assay: xCELLigence real-time impedance cell migration; conditions: for Normalized cell index (cell migration): cell index normalized to 1.0 at addition of test agent, concentration based on IC50 for the cell line
Experimental: as §2

[9] = system: PNTA; assay: xCELLigence real-time impedance cell migration; conditions: for Normalized cell index (cell migration): cell index normalized to 1.0 at addition of test agent, concentration based on IC50 for the cell line
Experimental: as §2

Structure (SMILES)	DHODH-dependent respiration [1]	DHODH-dependent respiration [2]	DHODH-dependent respiration [3]	Control-substance (difference of normalized cell index, cell invasiveness) [4]	Normalized cell index (cell invasiveness) [4]	Control-substance (difference of normalized cell index, cell invasiveness) [5]	Normalized cell index (cell invasiveness) [5]	Control-substance (difference of normalized cell index, cell invasiveness) [6]	Normalized cell index (cell invasiveness) [6]	Control-substance (difference of normalized cell index, cell migration) [7]	Normalized cell index (cell migration) [7]	Control-substance (difference of normalized cell index, cell migration) [8]	Normalized cell index (cell migration) [8]	Control-substance (difference of normalized cell index, cell migration) [9]	Normalized cell index (cell migration) [9]
CCCN1/C(=C/C=C(/C=C/c2sc3ccccc3[n+]2CCC)c2ccccc2)Sc2ccccc21.[I-] [Substance 1]	unaffected	caused a decrease in DHODH-dependent respiration	caused a decrease in DHODH-dependent respiration	21.4	1.4	24.3	1.3	16.9	2.8	30.0	8.8	20.8	3.5	15.2	3.4
CCCN1/C(=C/C=C(/C=C/C2=[N+](CCC)c3ccccc3C2(C)C)c2ccncc2)C(C)(C)c2ccccc21.[I-] [Substance 2]	unaffected	caused a decrease in DHODH-dependent respiration	caused a decrease in DHODH-dependent respiration	17.4	5.4	23.7	1.9	16.5	3.2	19.3	19.5	20.4	3.9	11.6	7.0
